In patent publication US8557872B2, “Compounds, isomer thereof, or pharmaceutically acceptable salts thereof as vanilloid receptor antagonist; and pharmaceutical compositions containing the same” (Amorepacific Corporation, priority 2008, dated 2013):
Where two headings read alike, the source gives them in different places.

Key:
[1] = PK study in rats, single oral administration; type: in vivo, rat; set-up: AUC: concentration or dose not given beside the values; conditions: for AUC / Tmax / Cmax / half-life: rat, single oral administration, plasma
Protocol: Pharmacokinetics of compounds in rats were analyzed using the following experiment. Rats were fasted overnight prior to administration and until approximately 4 hours after administration. Rats were given a single oral administration of compound at same dose. Administration volume was 10 ml/kg. Blood samples were collected from the retro-orbital sinus at various times over the following 7 hrs. Immediately after each collection, plasmas were separated from blood cells by centrifugation and stored at −20° C. until the analysis was performed. The plasma samples were analyzed using a reverse phase high-performance chromatography (HPLC) method.

[2] = target: T1, vanilloid receptor (Rattus norvegicus, UniProt O35433); experiment: 45Ca influx test (calcium uptake) in primary cultured DRG neurons, capsaicin 0.5 μM; type: cell-based
T1 construct: DRG nerve cells from the primary culture of 2 days were equilibrated by washing 4 times; endogenous in cells; host or cells: primary culture of dorsal root ganglion neurons from neonatal SD rats
T1 sequence (O35433 whole entry): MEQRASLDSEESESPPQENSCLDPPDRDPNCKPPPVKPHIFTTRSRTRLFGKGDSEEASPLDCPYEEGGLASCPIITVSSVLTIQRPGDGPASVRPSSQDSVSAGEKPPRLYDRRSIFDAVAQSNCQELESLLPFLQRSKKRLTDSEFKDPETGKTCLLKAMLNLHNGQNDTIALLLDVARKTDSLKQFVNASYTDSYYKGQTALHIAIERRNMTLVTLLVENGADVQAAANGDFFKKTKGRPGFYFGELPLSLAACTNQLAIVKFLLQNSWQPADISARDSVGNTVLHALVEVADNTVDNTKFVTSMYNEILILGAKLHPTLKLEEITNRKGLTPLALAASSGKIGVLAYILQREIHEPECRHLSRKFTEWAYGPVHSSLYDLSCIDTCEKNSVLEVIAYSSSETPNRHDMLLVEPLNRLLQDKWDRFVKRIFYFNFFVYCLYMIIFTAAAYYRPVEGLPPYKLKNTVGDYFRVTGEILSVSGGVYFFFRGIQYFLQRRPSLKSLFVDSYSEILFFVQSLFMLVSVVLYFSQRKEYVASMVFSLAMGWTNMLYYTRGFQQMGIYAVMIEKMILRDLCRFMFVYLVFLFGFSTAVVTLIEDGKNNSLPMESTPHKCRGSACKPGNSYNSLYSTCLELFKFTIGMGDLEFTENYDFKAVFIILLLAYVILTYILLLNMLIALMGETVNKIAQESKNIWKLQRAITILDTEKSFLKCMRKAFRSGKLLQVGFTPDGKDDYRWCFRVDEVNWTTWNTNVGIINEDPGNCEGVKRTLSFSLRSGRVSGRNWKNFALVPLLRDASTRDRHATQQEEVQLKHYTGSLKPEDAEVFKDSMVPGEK
Protocol: 1) Separation of Spinal Dorsal Root Ganglia (DRG) in Newborn Rats and Primary Culture Thereof
Neonatal (2-3 day old or younger than 2-3 day old) SD rats were put in ice for 5 minutes to anesthetize and disinfected with 70% ethanol. […] The DRG were incubated sequentially at 37° C. for 30 mins in 200 U/ml collagenase and 2.5 mg/ml trypsin, separately. The ganglia were washed twice with DME/F12 medium supplemented with 10% horse serum, triturated through a fire-polished Pasteur pipette, filtered through Nitex 80 membrane to obtain single cell suspension and the suspension was washed once more. This was subjected to centrifugation, then resuspended in cell culture medium at certain level of cell density. As the cell culture medium, DME/F12 medium supplemented with 10% horse serum was diluted with identical medium conditioned by C6 glioma cells 2 days on a confluent monolayer (1:1), and NGF (Nerve Growth Factor) was added to adjust 200 ng/ml as final concentration. After the cells were grown 2 days in medium where cytosine arabinoside (Ara-C, 100 μM) was added to kill dividing nonneuronal cells, medium was changed to one without Ara-C. The resuspended cells were plated at a density of 1500-2000 neurons/well onto Terasaki plates previously coated with 10 μg/ml poly-D-ornithine.
2) ^45Ca Influx Experiments
DRG nerve cells from the primary culture of 2 days were equilibrated by washing 4 times with HEPES (10 mM, pH 7.4)-buffered Ca^2+, Mg^2+-free HBSS (H-HBSS). The solution in each well was removed from the individual well. Medium containing the test compound plus capsaicin (final concentration 0.5 μM) and ^45Ca (final concentration 10 μCi/ml) in H-HBSS was added to each well and incubated at room temperature for 10 mins. Terasaki plates were washed five times with H-HBSS and dried at room temperature. To each well, 0.3% SDS (10 μl) was added to elute ^45Ca. After the addition of scintillation cocktail of into each well, the amount of ^45Ca influx into neuron was measured by counting radioactivity.

[3] = Table 4, detection limit 0.100 mcg/ml
[4] = comparison with comparative compounds F and G, read-out: IC50 value
[5] = Table 2, read-out: T½ (converted)
[6] = rat DRG neurons, capsaicin 0.5 μM, 45Ca, read-out: Antagonist Calcium Uptake Test (IC50)

SMILES | IC50 [2, 4] | AUC ([1]; Table 2) | Cmax ([1]; Table 2) | Tmax ([1]; Table 2) | half-life [1, 5] | IC50 [2, 6] | also measured
C=Cc1cc(CNC(=O)/C=C/c2ccc(C(F)(F)F)cc2)ccc1NS(C)(=O)=O [Comp Cpd F, reference compound] | 0.57 µM |  |  |  |  |  | AUC ([1]; Table 4): 40.1 µg·h/mL; Tmax ([1]; Table 4): 2 h; Cmax [1, 3]: 5 µg/mL; half-life ([1]; Table 4, read-out: T1/2 (converted)): 4.59 h
CCCc1cc(C(C)(C)C)ccc1/C=C/C(=O)N[C@H](C)c1cc(F)c(NS(C)(=O)=O)c(F)c1 [Comp Cpd E, reference compound] |  |  |  |  |  |  | Cmax ([1]; Table 3, detection limit 0.100 mcg/ml): < 0.1 µg/mL; IC50 ([2]; Table 3, comparative compounds having tert-butyl-phenyl, read-out: IC50): 2.3 µM
C[C@@H](NC(=O)/C=C/c1ccc(C(F)(F)F)cc1)c1cc(F)c(NS(C)(=O)=O)c(F)c1 [Comp Cpd G, reference compound] | > 10 µM |  |  |  |  |  | PK properties (in terms of T max and AUC) ([1]; oral, in words): poor PK-properties; Cmax [1, 3]: < 0.1 µg/mL; IC50 ([2]; Table 4, comparative compounds having CF3-phenyl, read-out: IC50): > 10 µM
C=Cc1cc(CNC(=O)/C=C/c2ccc(C(F)(F)F)cc2NC(C)C)cc(F)c1NS(C)(=O)=O [Example 54, N-(3-fluoro-4-methanesulfonylamino-5-vinyl-benzyl)-3-(2-isopropylamino-4-trifluoromethyl-phenyl)-acrylamide] | 0.027 µM | 5.32 µg·h/mL | 0.772 µg/mL | 2 h | 4.05 h |  | 
CCCCc1cc(C(F)(F)F)ccc1/C=C/C(=O)N[C@H](C)c1cc(F)c(NS(C)(=O)=O)c(F)c1 [Example 24, (R)-3-(2-Butyl-4-trifluoromethyl-phenyl)-N-[1-(3,5-difluoro-4-methanesulfonylamino-phenyl)-ethyl]-acrylamide] |  | 5.69 µg·h/mL | 1.19 µg/mL | 2 h | 2.08 h | 0.044 µM | 
CCCc1cc(C(F)(F)F)ccc1/C=C/C(=O)NCc1cc(F)c(NS(C)(=O)=O)c(F)c1 [Example 22, N-(3,5-Difluoro-4-methanesulfonylamino-benzyl)-3-(2-propyl-4-trifluoromethyl-phenyl)-acrylamide] |  | 19.2 µg·h/mL | 3.66 µg/mL | 2 h | 2.58 h | 0.16 µM | 
CCCNc1cc(C(F)(F)F)ccc1/C=C/C(=O)NCc1cc(F)c(NS(C)(=O)=O)c(F)c1 [Example 2, N-(3,5-Difluoro-4-methanesulfonylamino-benzyl)-3-(2-propylamino-4-trifluoromethyl-phenyl)-acrylamide] |  | 7.15 µg·h/mL | 1.42 µg/mL | 2 h | 3.55 h | 0.17 µM | 
CCCNc1cc(C(F)(F)F)ccc1/C=C/C(=O)N[C@H](C)c1cc(F)c(NS(C)(=O)=O)c(F)c1 [Example 1, (R)—N-[1-(3,5-Difluoro-4-methanesulfonylamino-phenyl)-ethyl]-3-(2-propylamino-4-trifluoromethyl-phenyl)-acrylamide] |  | 1.94 µg·h/mL | 0.466 µg/mL | 3.5 h | 1.4 h | 0.019 µM | 
